According to PubChem BioAssay AID2060509 (Molecular Pharmacology Branch, DTP, NCI, 2025):
pIC50: −log10 of the molar value.

Tested on: 485176-168-R4-J1-PDC spheroids with HUVEC/MSC, viability
Experiment: Anticancer human tumor 485176-168-R4-J1-PDC patient-derived pancreatic adenocarcinoma cell line growth inhibition [GQUAD]
Details: for pIC50: curve of first compound; for viability, T/C: stronger effect = lower value
Procedure, shortened: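 Viability of tumor cells grown as complex spheroids with endothelial and stromal cells, exposed to drug combinations. Top concentration at or near clinical Cmax (else 10 microM), diluted in half-log increments.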

[1] = second compound 0.0316 µM, first compound 0.0316 µM
[2] = second compound 0.0316 µM, first compound 0.1 µM
[3] = second compound 0.0316 µM, first compound 0.316 µM
[4] = second compound 0.0316 µM, first compound 1 µM
[5] = second compound 0.0316 µM, first compound 3.16 µM
[6] = second compound 0.0316 µM, first compound 10 µM
[7] = second compound 0.1 µM, first compound 0.0316 µM
[8] = second compound 0.1 µM, first compound 0.1 µM
[9] = second compound 0.1 µM, first compound 0.316 µM
[10] = second compound 0.1 µM, first compound 1 µM
[11] = second compound 0.1 µM, first compound 3.16 µM
[12] = second compound 0.1 µM, first compound 10 µM
[13] = second compound 0.316 µM, first compound 0.0316 µM
[14] = second compound 0.316 µM, first compound 0.1 µM
[15] = second compound 0.316 µM, first compound 0.316 µM
[16] = second compound 0.316 µM, first compound 1 µM
[17] = second compound 0.316 µM, first compound 3.16 µM
[18] = second compound 0.316 µM, first compound 10 µM
[19] = second compound 1 µM, first compound 0.0316 µM
[20] = second compound 1 µM, first compound 0.1 µM
[21] = second compound 1 µM, first compound 0.316 µM
[22] = second compound 1 µM, first compound 1 µM
[23] = second compound 1 µM, first compound 3.16 µM
[24] = second compound 1 µM, first compound 10 µM
[25] = second compound 3.16 µM, first compound 0.0316 µM
[26] = second compound 3.16 µM, first compound 0.1 µM
[27] = second compound 3.16 µM, first compound 0.316 µM
[28] = second compound 3.16 µM, first compound 1 µM
[29] = second compound 3.16 µM, first compound 3.16 µM
[30] = second compound 3.16 µM, first compound 10 µM
[31] = second compound 10 µM, first compound 0.0316 µM
[32] = second compound 10 µM, first compound 0.1 µM
[33] = second compound 10 µM, first compound 0.316 µM
[34] = second compound 10 µM, first compound 1 µM
[35] = second compound 10 µM, first compound 3.16 µM
[36] = second compound 10 µM, first compound 10 µM
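Note: spheroids exposed to compounds for seven days before readout.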
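Throughout, for viability, T/C: percent viability relative to DMSO vehicle control wells as 100%.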

## C#Cc1c(F)ccc2cc(O)cc(-c3ncc4c(N5CC6CCC(C5)N6)nc(OCC56CCCN5CC(F)C6)nc4c3F)c12 (stereo unspecified) + CN(C)c1ccc(Nc2c3ccc(NC(=O)CCN4CCCC4)cc3nc3cc(NC(=O)CCN4CCCC4)ccc23)cc1
Second compound 0.0316 µM
  pIC50: < 5.00
Second compound 0.1 µM
  pIC50: < 5.00
Second compound 0.316 µM
  pIC50: < 5.00
Second compound 1 µM
  pIC50: < 5.00
Second compound 3.16 µM
  pIC50: < 5.00
Second compound 10 µM
  pIC50: < 5.00
[1]
  viability, T/C: 119%
[2]
  viability, T/C: 106%
[3]
  viability, T/C: 103%
[4]
  viability, T/C: 106%
[5]
  viability, T/C: 95.6%
[6]
  viability, T/C: 98.2%
[7]
  viability, T/C: 112%
[8]
  viability, T/C: 99.5%
[9]
  viability, T/C: 91.9%
[10]
  viability, T/C: 97.9%
[11]
  viability, T/C: 120%
[12]
  viability, T/C: 116%
[13]
  viability, T/C: 97.4%
[14]
  viability, T/C: 81.8%
[15]
  viability, T/C: 105%
[16]
  viability, T/C: 102%
[17]
  viability, T/C: 95.5%
[18]
  viability, T/C: 85.5%
[19]
  viability, T/C: 91.6%
[20]
  viability, T/C: 90.8%
[21]
  viability, T/C: 99.3%
[22]
  viability, T/C: 111%
[23]
  viability, T/C: 94.6%
[24]
  viability, T/C: 94.3%
[25]
  viability, T/C: 113%
[26]
  viability, T/C: 96.2%
[27]
  viability, T/C: 103%
[28]
  viability, T/C: 94.4%
[29]
  viability, T/C: 99.4%
[30]
  viability, T/C: 78.2%
[31]
  viability, T/C: 89.8%
[32]
  viability, T/C: 104%
[33]
  viability, T/C: 82.5%
[34]
  viability, T/C: 91.9%
[35]
  viability, T/C: 70.8%
[36]
  viability, T/C: 54.3%

## CC(=O)O[C@H]1C(=O)[C@@]2(C)[C@H]([C@H](OC(=O)c3ccccc3)[C@]3(O)C[C@H](OC(=O)[C@H](O)[C@@H](NC(=O)c4ccccc4)c4ccccc4)C(C)=C1C3(C)C)[C@]1(OC(C)=O)CO[C@@H]1C[C@@H]2O + CN(C)c1ccc(Nc2c3ccc(NC(=O)CCN4CCCC4)cc3nc3cc(NC(=O)CCN4CCCC4)ccc23)cc1
Second compound 0.0316 µM
  pIC50: > 7.50
Second compound 0.1 µM
  pIC50: > 7.50
Second compound 0.316 µM
  pIC50: > 7.50
Second compound 1 µM
  pIC50: > 7.50
Second compound 3.16 µM
  pIC50: > 7.50
Second compound 10 µM
  pIC50: > 7.50
[1]
  viability, T/C: 34.3%
[2]
  viability, T/C: 14.3%
[3]
  viability, T/C: 14.3%
[4]
  viability, T/C: 11.6%
[5]
  viability, T/C: 11%
[6]
  viability, T/C: 14.1%
[7]
  viability, T/C: 31.9%
[8]
  viability, T/C: 15%
[9]
  viability, T/C: 14.1%
[10]
  viability, T/C: 14.9%
[11]
  viability, T/C: 12%
[12]
  viability, T/C: 11.3%
[13]
  viability, T/C: 33.3%
[14]
  viability, T/C: 15.6%
[15]
  viability, T/C: 12.9%
[16]
  viability, T/C: 13.7%
[17]
  viability, T/C: 11.5%
[18]
  viability, T/C: 10.9%
[19]
  viability, T/C: 31%
[20]
  viability, T/C: 13.3%
[21]
  viability, T/C: 12.2%
[22]
  viability, T/C: 14%
[23]
  viability, T/C: 11.5%
[24]
  viability, T/C: 9.76%
[25]
  viability, T/C: 36.9%
[26]
  viability, T/C: 11.3%
[27]
  viability, T/C: 16.1%
[28]
  viability, T/C: 13.6%
[29]
  viability, T/C: 12.5%
[30]
  viability, T/C: 11.3%
[31]
  viability, T/C: 28.3%
[32]
  viability, T/C: 12.4%
[33]
  viability, T/C: 13.1%
[34]
  viability, T/C: 11.5%
[35]
  viability, T/C: 10.6%
[36]
  viability, T/C: 12%

## CCCS(=O)(=O)Nc1ccc(F)c(C(=O)c2c[nH]c3ncc(-c4ccc(Cl)cc4)cc23)c1F + CN(C)c1ccc(Nc2c3ccc(NC(=O)CCN4CCCC4)cc3nc3cc(NC(=O)CCN4CCCC4)ccc23)cc1
Second compound 0.0316 µM
  pIC50: < 5.00
Second compound 0.1 µM
  pIC50: < 5.00
Second compound 0.316 µM
  pIC50: < 5.00
Second compound 1 µM
  pIC50: < 5.00
Second compound 3.16 µM
  pIC50: < 5.00
Second compound 10 µM
  pIC50: 5.19
[1]
  viability, T/C: 87.4%
[2]
  viability, T/C: 81.9%
[3]
  viability, T/C: 91.6%
[4]
  viability, T/C: 86.4%
[5]
  viability, T/C: 86.3%
[6]
  viability, T/C: 70.1%
[7]
  viability, T/C: 100%
[8]
  viability, T/C: 99%
[9]
  viability, T/C: 83.2%
[10]
  viability, T/C: 73.6%
[11]
  viability, T/C: 94.3%
[12]
  viability, T/C: 60%
[13]
  viability, T/C: 97.5%
[14]
  viability, T/C: 95%
[15]
  viability, T/C: 91.1%
[16]
  viability, T/C: 77.2%
[17]
  viability, T/C: 90.8%
[18]
  viability, T/C: 63.7%
[19]
  viability, T/C: 76.3%
[20]
  viability, T/C: 86.8%
[21]
  viability, T/C: 105%
[22]
  viability, T/C: 94.8%
[23]
  viability, T/C: 82.5%
[24]
  viability, T/C: 65.3%
[25]
  viability, T/C: 91.8%
[26]
  viability, T/C: 87.6%
[27]
  viability, T/C: 78.8%
[28]
  viability, T/C: 81.3%
[29]
  viability, T/C: 81.2%
[30]
  viability, T/C: 51.3%
[31]
  viability, T/C: 76.6%
[32]
  viability, T/C: 83.7%
[33]
  viability, T/C: 65.4%
[34]
  viability, T/C: 70.6%
[35]
  viability, T/C: 63.3%
[36]
  viability, T/C: 42.7%
